Test results taken from US11104648B2, “Pyrazole derivative” (Zhejiang Research Institute of Chemical Industry Co., Ltd., priority 2018, dated 2021).
Read-outs that look alike come from different tables or passages of the source.

Experiments:
Type in all cases: in vivo
[1] = test system: Tetranychus cinnabarinus Nymphs; assay: Activity assay of Tetranychus cinnabarinus nymphs (spray on broad bean leaves)
Description: According to the solubility of the test compound, the crude drug was dissolved in N, N-dimethylformamide, and then prepared into a test solution of the desired concentration with 1‰ Tween 80 aqueous solution. The content of N,N-dimethylformamide in the solution should not exceed 10%.
The broad bean leaves with petioles were cut and inserted into a small bottle with water. A certain number of brightly colored, active female adult mites were placed, 24h later, adult mites were removed, and leaves with insufficient eggs were removed. When eggs were hatched and grew into nymphs, spray treatment was performed. The experiment was repeated three times, and a blank control was set, and placed to an observation room (26±2° C., humidity 70%˜80%, 16h light per day) for culture. 48 h later, the results were investigated. The nymphs were gently touched during investigation, and if no response, they were regarded as deaths.

[2] = test system: adult Tetranychus cinnabarinus; assay: Activity assay of adult Tetranychus cinnabarinus (whole-plant spray on bean seedlings); conditions: 48 h, read-out: adult mite-killing activity
Description: According to the solubility of the test compound, the crude drug was dissolved in N, N-dimethlfornamide, and then prepared into a test solution of the desired concentration with 1‰ Tween 80 aqueous solution. The content of N,N-dimethylformamide in the solution should not exceed 10%.
Two euphylla bean seedlings were taken, after inoculated with adult Tetranychus cinnabarinus and the base number was investigated, whole plants were sprayed with a hand-held sprayer. The experiment was repeated three times for each treatment, after treatment, placed in a standard observation room after treatment, to investigate the survival number of mites in 48 hand calculate the death rate.

[3] = test system: Eggs of Tetranychus Cinnabarinus; assay: Activity assay of eggs of Tetranychus cinnabarinus (spray method, ovicidal); conditions: Tetranychus cinnabarinus, read-out: ovicidal activity
Description: According to the solubility of the test compound, the crude drug was dissolved in N N-dimethylformamide, and then prepared into a test solution of the desired concentration with 1‰ Tween 80 aqueous solution. The content of N. N-dimethylformamide in the solution should not exceed 10%.
Spray method. The broad bean leaves with petioles were cut and inserted into a bottle with water. A certain number of female mites were placed, 24h later, adult mites were removed, and spray treatment was performed in 24 h. The experiment was repeated three times, and a blank control was set, and placed to an observation room (26±2° C., humidity 70%˜80%, 16h light per day) for culture. When the blank control group was incubated, the results were investigated. The non-incubated ones were used as death for investigation.

[4] = 48 h, concentration 2.5 mg/L, read-out: nymph-killing activity
[5] = concentration 5 mg/L, spray, non-incubated eggs counted as dead
[6] = 48 h, read-out: nymph-killing activity
[7] = concentration 2.5 mg/L, 48 h, read-out: nymph-killing activity

SMILES	pest or weed control at 2.5 µg/mL [1, 4]	pest or weed control at 2.5 µg/mL ([2]; concentration 2.5 mg/L)	pest or weed control at 5 µg/mL [3, 5]	pest or weed control at 2.5 µg/mL [1, 6]	pest or weed control at 2.5 µg/mL [2]	pest or weed control at 5 µg/mL [3]	pest or weed control at 2.5 µg/mL [1, 7]
CCC(C)(C)C(=O)OCO/C(=C(/C#N)c1ccc(C(C)(C)C)cc1)c1c(Cl)c(C)nn1C [Compound 91]	≥ 95%	≥ 90%	≥ 90%				
C=CC(=O)OCO/C(=C(/C#N)c1ccc(C(C)(C)C)cc1)c1c(Cl)c(C)nn1C [Compound 92]	≥ 95%	≥ 90%	≥ 90%				
CC(=O)OC(C)O/C(=C(/C#N)c1ccc(C(C)(C)C)cc1)c1c(Cl)c(C)nn1C (stereo not drawn) [Compound 101]	≥ 95%	≥ 90%	≥ 90%				
CCC(=O)OC(C)O/C(=C(/C#N)c1ccc(C(C)(C)C)cc1)c1c(Cl)c(C)nn1C (stereo not drawn) [Compound 102]	≥ 95%	≥ 90%	≥ 90%				
CCCC(=O)OC(C)O/C(=C(/C#N)c1ccc(C(C)(C)C)cc1)c1c(Cl)c(C)nn1C (stereo not drawn) [Compound 103]	≥ 95%	≥ 90%	≥ 90%				
Cc1nn(C)c(/C(OC(C)OC(=O)C(C)C)=C(\C#N)c2ccc(C(C)(C)C)cc2)c1Cl (stereo not drawn) [Compound 104]	≥ 95%	≥ 90%	≥ 90%				
CCCCC(=O)OC(C)O/C(=C(/C#N)c1ccc(C(C)(C)C)cc1)c1c(Cl)c(C)nn1C (stereo not drawn) [Compound 106]	≥ 95%	≥ 90%	≥ 90%				
Cc1nn(C)c(/C(OC(C)OC(=O)CC(C)C)=C(\C#N)c2ccc(C(C)(C)C)cc2)c1Cl (stereo not drawn) [Compound 107]	≥ 95%	≥ 90%	≥ 90%				
COCC(=O)OC(C)O/C(=C(/C#N)c1ccc(C(C)(C)C)cc1)c1c(Cl)c(C)nn1C (stereo not drawn) [Compound 108]	≥ 95%	≥ 90%	≥ 90%				
Cc1nn(C)c(/C(OC(C)OC(=O)C2CC2)=C(\C#N)c2ccc(C(C)(C)C)cc2)c1Cl (stereo not drawn) [Compound 109]	≥ 95%	≥ 90%	≥ 90%				
CSCC(=O)OC(C)O/C(=C(/C#N)c1ccc(C(C)(C)C)cc1)c1c(Cl)c(C)nn1C (stereo not drawn) [Compound 110]	≥ 95%	≥ 90%	≥ 90%				
Cc1nn(C)c(/C(OC(C)OC(=O)C2CCCCC2)=C(\C#N)c2ccc(C(C)(C)C)cc2)c1Cl (stereo not drawn) [Compound 111]	≥ 95%	≥ 90%	≥ 90%				
Cc1nn(C)c(/C(OC(C)OC(=O)CF)=C(\C#N)c2ccc(C(C)(C)C)cc2)c1Cl (stereo not drawn) [Compound 112]				≥ 95%	≥ 90%	≥ 90%	
Cc1nn(C)c(/C(OC(C)OC(=O)C(F)(F)F)=C(\C#N)c2ccc(C(C)(C)C)cc2)c1Cl (stereo not drawn) [Compound 113]	≥ 95%	≥ 90%	≥ 90%				
Cc1nn(C)c(/C(OC(C)OC(=O)c2ccccc2)=C(\C#N)c2ccc(C(C)(C)C)cc2)c1Cl (stereo not drawn) [Compound 114]	≥ 95%	≥ 90%	≥ 90%				
Cc1nn(C)c(/C(OC(C)OC(=O)Cc2ccccc2)=C(\C#N)c2ccc(C(C)(C)C)cc2)c1Cl (stereo not drawn) [Compound 115]		≥ 90%	≥ 90%				≥ 95%
CCC(C)(C)C(=O)OC(C)O/C(=C(/C#N)c1ccc(C(C)(C)C)cc1)c1c(Cl)c(C)nn1C (stereo not drawn) [Compound 116]	≥ 95%	≥ 90%	≥ 90%				
C=CC(=O)OC(C)O/C(=C(/C#N)c1ccc(C(C)(C)C)cc1)c1c(Cl)c(C)nn1C (stereo not drawn) [Compound 117]	≥ 95%	≥ 90%	≥ 90%				
CC(=O)OCO/C(=C(/C#N)c1ccc(C(C)(C)C)cc1)c1c(C)c(C)nn1C [Compound 151]	≥ 95%	≥ 90%	≥ 90%				
CCC(=O)OCO/C(=C(/C#N)c1ccc(C(C)(C)C)cc1)c1c(C)c(C)nn1C [Compound 152]	≥ 95%	≥ 90%	≥ 90%				

SMILES	pest or weed control at 2.5 µg/mL [1, 4]	pest or weed control at 2.5 µg/mL ([2]; concentration 2.5 mg/L)	pest or weed control at 5 µg/mL [3, 5]	pest or weed control at 2.5 µg/mL [1, 6]	pest or weed control at 2.5 µg/mL [2]	pest or weed control at 5 µg/mL [3]	pest or weed control at 2.5 µg/mL [1, 7]
CCCC(=O)OCO/C(=C(/C#N)c1ccc(C(C)(C)C)cc1)c1c(C)c(C)nn1C [Compound 153]	≥ 95%	≥ 90%	≥ 90%				
Cc1nn(C)c(/C(OCOC(=O)C(C)C)=C(\C#N)c2ccc(C(C)(C)C)cc2)c1C [Compound 154]	≥ 95%	≥ 90%	≥ 90%				
Cc1nn(C)c(/C(OCOC(=O)C(C)(C)C)=C(\C#N)c2ccc(C(C)(C)C)cc2)c1C [Compound 155]	≥ 95%	≥ 90%	≥ 90%				
CCCCC(=O)OCO/C(=C(/C#N)c1ccc(C(C)(C)C)cc1)c1c(C)c(C)nn1C [Compound 156]	≥ 95%	≥ 90%	≥ 90%				
Cc1nn(C)c(/C(OCOC(=O)CC(C)C)=C(\C#N)c2ccc(C(C)(C)C)cc2)c1C [Compound 157]	≥ 95%	≥ 90%	≥ 90%				
COCC(=O)OCO/C(=C(/C#N)c1ccc(C(C)(C)C)cc1)c1c(C)c(C)nn1C [Compound 158]	≥ 95%	≥ 90%	≥ 90%				
Cc1nn(C)c(/C(OCOC(=O)C2CC2)=C(\C#N)c2ccc(C(C)(C)C)cc2)c1C [Compound 159]	≥ 95%	≥ 90%	≥ 90%				
CSCC(=O)OCO/C(=C(/C#N)c1ccc(C(C)(C)C)cc1)c1c(C)c(C)nn1C [Compound 160]	≥ 95%	≥ 90%	≥ 90%				
Cc1nn(C)c(/C(OCOC(=O)C2CCCCC2)=C(\C#N)c2ccc(C(C)(C)C)cc2)c1C [Compound 161]	≥ 95%	≥ 90%	≥ 90%				
Cc1nn(C)c(/C(OCOC(=O)CF)=C(\C#N)c2ccc(C(C)(C)C)cc2)c1C [Compound 162]				≥ 95%	≥ 90%	≥ 90%	
Cc1nn(C)c(/C(OCOC(=O)C(F)(F)F)=C(\C#N)c2ccc(C(C)(C)C)cc2)c1C [Compound 163]	≥ 95%	≥ 90%	≥ 90%				
Cc1nn(C)c(/C(OCOC(=O)c2ccccc2)=C(\C#N)c2ccc(C(C)(C)C)cc2)c1C [Compound 164]	≥ 95%	≥ 90%	≥ 90%				
Cc1nn(C)c(/C(OCOC(=O)Cc2ccccc2)=C(\C#N)c2ccc(C(C)(C)C)cc2)c1C [Compound 165]		≥ 90%	≥ 90%				≥ 95%
CCC(C)(C)C(=O)OCO/C(=C(/C#N)c1ccc(C(C)(C)C)cc1)c1c(C)c(C)nn1C [Compound 166]	≥ 95%	≥ 90%	≥ 90%				
C=CC(=O)OCO/C(=C(/C#N)c1ccc(C(C)(C)C)cc1)c1c(C)c(C)nn1C [Compound 167]	≥ 95%	≥ 90%	≥ 90%				
CC(=O)OC(C)O/C(=C(/C#N)c1ccc(C(C)(C)C)cc1)c1c(C)c(C)nn1C (stereo not drawn) [Compound 176]	≥ 95%	≥ 90%	≥ 90%				
CCC(=O)OC(C)O/C(=C(/C#N)c1ccc(C(C)(C)C)cc1)c1c(C)c(C)nn1C (stereo not drawn) [Compound 177]	≥ 95%	≥ 90%	≥ 90%				
CCCC(=O)OC(C)O/C(=C(/C#N)c1ccc(C(C)(C)C)cc1)c1c(C)c(C)nn1C (stereo not drawn) [Compound 178]	≥ 95%	≥ 90%	≥ 90%				
Cc1nn(C)c(/C(OC(C)OC(=O)C(C)C)=C(\C#N)c2ccc(C(C)(C)C)cc2)c1C (stereo not drawn) [Compound 179]	≥ 95%	≥ 90%	≥ 90%				
